From article PMC4278257 (International Journal of Biological Sciences, 2015)
Numbering of substitutions follows the chain as printed. “Also recorded” adds a separate entry of the source. Like-named read-outs stand apart in the source and are kept apart here.

Legend:
[1] = target: T1, SlitOBP1 Ile52 (isoleucine to alanine) (Spodoptera litura, UniProt A1Z1R1, I71A); assay: Fluorescence binding assay with 1-NPN, mutant SlitOBP1 Ile52
T1 sequence (A1Z1R1 20-164 I71A): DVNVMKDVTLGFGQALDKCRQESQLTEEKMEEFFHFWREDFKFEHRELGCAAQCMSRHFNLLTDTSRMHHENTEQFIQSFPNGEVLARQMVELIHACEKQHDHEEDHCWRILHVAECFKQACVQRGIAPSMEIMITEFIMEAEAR

[2] = target: T2, SlitOBP1 Trp37 (tryptophan to alanine) (Spodoptera litura, UniProt A1Z1R1, W56A); assay: Fluorescence binding assay with 1-NPN, mutant SlitOBP1 Trp37
T2 sequence (A1Z1R1 20-164 W56A): T1 sequence (A1Z1R1 20-164 I71A) with W37A, A52I

[3] = target: T3, SlitOBP1 Phe12 (phenylalanine to alanine) (Spodoptera litura, UniProt A1Z1R1, F31A); assay: Fluorescence binding assay with 1-NPN, mutant SlitOBP1 Phe12
T3 sequence (A1Z1R1 20-164 F31A): T1 sequence (A1Z1R1 20-164 I71A) with F12A, A52I

[4] = target: T4, SlitOBP1 Glu98 (glutamic to alanine) (Spodoptera litura, UniProt A1Z1R1, E117A); assay: Fluorescence binding assay with 1-NPN, mutant SlitOBP1 Glu98
T4 sequence (A1Z1R1 20-164 E117A): T1 sequence (A1Z1R1 20-164 I71A) with A52I, E98A

[5] = target: T5, SlitOBP1 Thr9 (threonine to alanine) (Spodoptera litura, UniProt A1Z1R1, T28A); assay: Fluorescence binding assay with 1-NPN, mutant SlitOBP1 Thr9
T5 sequence (A1Z1R1 20-164 T28A): T1 sequence (A1Z1R1 20-164 I71A) with T9A, A52I

SlitOBP1 = target: T6, SlitOBP1 (Spodoptera litura, UniProt A1Z1R1); assay: Fluorescence competitive binding assay with 1-NPN, recombinant SlitOBP1; conditions: for binding to SlitOBP1 in the competitive fluorescence binding assay, in words: wild-type SlitOBP1, displacement of 1-NPN
T6 sequence (A1Z1R1 20-164): T1 sequence (A1Z1R1 20-164 I71A) with A52I

[6] = 2 μM SlitOBP1, 2 μM 1-NPN, ligand 0-20 μM, unit inferred

| Ki (SlitOBP1) | IC50 (SlitOBP1; [6]) | Structure (SMILES) | binding to SlitOBP1 in the competitive fluorescence binding assay, in words (SlitOBP1) | also measured |
| --- | --- | --- | --- | --- |
| – | – | c1ccc(Nc2cccc3ccccc23)cc1 [1-NPN, N-phenyl-1-naphthylamine, reference compound] | – | Kd [1]: 5.43 ± 0.31 µM; Kd [2]: 4.54 ± 0.28 µM; Kd [3]: 6.78 ± 0.25 µM; Kd [4]: 3.67 ± 0.25 µM; Kd [5]: 4.21 ± 0.19 µM; Kd (SlitOBP1): 3.24 ± 0.2 µM |
| 3.1 µM | 5.02 µM | C[C@]12C=CC(=O)C=C1CC[C@@H]1[C@@H]2[C@@H](O)C[C@@]2(C)[C@H]1CC[C@]2(O)C(=O)CO [50-24-8, 11β,17α,21-trihydroxypregna-1,4-diene-3,20-dione, reference compound] | high affinities; also recorded: could effectively displace 1-NPN | – |
| 3.09 µM | 5 µM | C[C@]12C=CC(=O)C=C1CC[C@@H]1[C@@H]2C(=O)C[C@@]2(C)[C@H]1CC[C@]2(O)C(=O)CO [53-03-2, 1,2-Dehydrocortisone, reference compound] | high affinities; also recorded: could effectively displace 1-NPN | – |
| 9.13 µM | 14.8 µM | CC(=O)[C@H]1CC[C@H]2[C@@H]3CC=C4C[C@@H](O)CC[C@]4(C)[C@H]3CC[C@]12C [145-13-1, Delta-5-pregnenolone] | – | – |
| 3.69 µM | 5.97 µM | OCCC(F)(F)C(F)(F)C(F)(F)C(F)(F)C(F)(F)C(F)(F)C(F)(F)C(F)(F)F [678-39-7, 1H,1H,2H,2H-perfluoro-1-decanol] | – | binding to the mutant compared with the wild type, in words ([2]; mutant Trp37): better binding activities |
| 4.13 µM | 6.68 µM | OCC(F)(F)C(F)(F)C(F)(F)C(F)(F)C(F)(F)C(F)(F)C(F)(F)C(F)(F)CO [754-96-1, 1H,1H,10H,10H-perfluoro-1,10-decanediol] | – | – |
| 5.12 µM | 8.28 µM | CC(=O)[C@@]12O[C@@H]1C[C@H]1[C@@H]3CC=C4C[C@@H](O)CC[C@]4(C)[C@H]3CC[C@@]12C [974-23-2, 16,17-epoxypregnenolone] | – | – |
| – | – | N#CC(F)(F)C(F)(F)C(F)(F)C(F)(F)C(F)(F)C(F)(F)C(F)(F)C(F)(F)C#N [2342-09-8, Perfluorosebaconitrile] | no binding potential | – |
| 4.14 µM | – | CC(C)(C)OC(=O)C[C@H](NC(=O)OCc1ccccc1)C(=O)O [5545-52-8, N-Cbz-L-Aspartic acid 4-tert-butyl ester] | – | IC50 (SlitOBP1): 6.7 µM |
| 3.78 µM | 6.11 µM | NCC(=O)NC(Cc1ccc(O)cc1)C(=O)NCC(=O)O (stereo not drawn) [6099-08-7, H-Gly-Tyr-Gly-OH] | – | binding to the mutant compared with the wild type, in words ([4]; mutant Glu98): better binding activities; binding to the mutant compared with the wild type, in words ([5]; mutant Thr9): better binding activities |
| 4.65 µM | 7.52 µM | CC[C@H](C)[C@H](NC(=O)[C@@H](N)CCCCN)C(=O)O [20556-13-2, H-Lys-Ile-OH] | – | – |
| 4.44 µM | 7.18 µM | NC(=O)[C@@H]1CCCN1C(=O)[C@H](Cc1cnc[nH]1)NC(=O)[C@@H]1CCC(=O)N1 [24305-27-9, Pyr-His-Pro-NH2] | – | – |
| – | – | NCCC(F)(F)C(F)(F)C(F)(F)C(F)(F)C(F)(F)C(F)(F)C(F)(F)C(F)(F)F [30670-30-5, 1H,1H,2H,2H-perfluorodecylamine] | no binding potential | – |
| 4.47 µM | 7.23 µM | N[C@@H](Cc1ccc(O)cc1)C(=O)OCc1ccccc1 [42406-77-9, L-Tyrosine benzyl ester] | – | – |
| 5.84 µM | 9.45 µM | OCC(F)(F)C(F)(F)C(F)(F)C(F)(F)C(F)(F)C(F)(F)C(F)(F)CO [203303-01-9, 1H,1H,9H,9H-perfluoro-1,9-nonanediol] | – | – |

| Structure (SMILES) | Ki (SlitOBP1) | IC50 (SlitOBP1; [6]) | binding to SlitOBP1 in the competitive fluorescence binding assay, in words (SlitOBP1) | also measured |
| --- | --- | --- | --- | --- |
| O=C(O)C(F)(F)C(F)(F)C(F)(F)C(F)(F)C(F)(F)C(F)(F)C(F)(F)C(F)(F)F [375-95-1, Perfluorononanoic acid] | 3.76 µM | 6.08 µM | high affinities; also recorded: could effectively displace 1-NPN | – |
| O=C(O)C(F)(F)C(F)(F)C(F)(F)C(F)(F)C(F)(F)C(F)(F)C(F)(F)C(F)(F)Cl [865-79-2, 9-Chlorohexadecafluorononanoic acid] | 3.73 µM | – | high affinities; also recorded: could effectively displace 1-NPN | IC50 (SlitOBP1): 6 µM |
